Test results published in patent US9023353B2, “Anti-(+)—methamphetamine monoclonal antibodies” (Board of Trustees University of Arkansas, priority 2013, dated 2015).

Tested on: ch-Antibody 51
Experiment: ligand cross-reactivity testing: inhibition of [3H]-METH binding to antibody
Text: Ch-Antibody 51 was designed to maintain the variable framework regions of the heavy and light chains of the mouse antibody including all three CDRs of both the heavy and the light chains, but includes a human IgG2 Fc region. These studies were designed to examine the potential for ch-Antibody 51 to bind to structurally-related stimulants, neurotransmitters, selected medications, and other drugs of abuse (Table 4). The assay used a modified radioimmunoassay (RIA) in a competitive binding format with [^3H]-METH (similar to RIA in Peterson et al., J Pharmacol Exp Ther (2008) 325:124-133) The assay is started by incubating radiolabeled METH ([^3H]-METH) with unlabeled potential ligand (concentrations typically range from 0.03-5000 nM), ch-Antibody 51, and Protein G conjugated to magnetic beads. After reaching equilibrium, the beads with bound antibody and ligand are separated from the solution with a magnet and the supernatant aspirated. The amount of mAb-bound [^3H]-METH is quantified by liquid scintillation counting. For each of the related stimulants, a complete inhibition curve was constructed to determine the KD or KI value (see FIG. 7). For the remaining test ligands, the same method was used, but only 2 concentrations of ligand were tested rather than the expanded range. Additionally, highly concentrated pools of compounds were used to attempt inhibition of [^3H]-METH binding to ch-Antibody 51. If METH binding was inhibited 50% or more by any pool of ligands, the assay was repeated with the compounds separately to identify the individual cross reacting ligands.
Average disintegrations per minute (DPM) from the scintillation counter were plotted versus the concentration of unlabeled ligand using Origin software (OriginLab). A 4-parameter logistic function was fit to the data to obtain values describing the top and bottom plateaus, slope and mid-point. The mid-point of the curve identifies the concentration of unlabeled ligand required to inhibit 50% of the binding of [^3H]-METH. For homologous assays in which unlabeled METH competes with [^3H]-METH for binding to ch-Antibody 51, the dissociation constant (KD) is found by subtracting the concentration of [^3H]-METH from the mid-point. For non-homologous assays in which unlabeled ligands other than METH compete for binding with [^3H]-METH, the subtraction yields a KI value.
Each pool was analyzed in triplicate, twice at each concentration.
Three (3) of the pools inhibited binding of radiolabeled METH by more than 50%, therefore these individual ligands were retested at 1 μM in triplicate in 2 separate assays.

[1] = individual ligands at 1 μM, triplicate in 2 assays, average

Row | Compound | Percent inhibition of [3H]-METH binding [1] | other results
1 | CN[C@@H](C)[C@H](O)c1ccccc1 (racemic) [(±)-Ephethine] | 26.1% | –
2 | CC(N)Cc1ccc2c(c1)OCO2 (single isomer, unassigned; (+)) [(+)-MDA, (+) 3,4-methylenedioxyamphetamine] | 40.7% | –
3 | CNC(C)Cc1ccc2c(c1)OCO2 (single isomer, unassigned; (-)) [(−)-MDMA] | 78.3% | Ki (inferred from more than 50% inhibition at 1 μM): < 1000 nM
4 | NCCc1ccccc1 [2-Phenylethylamine] | 20.0% | –
5 | CNC[C@H](O)c1cccc(O)c1 [(−)-Phenylephrine] | 38.2% | –
6 | NCCc1ccc(O)cc1 [Tyramine] | – | Percent inhibition of [3H]-METH binding (ligand pool, each inhibitor in pool 1 μM): 2.1%; Percent inhibition of [3H]-METH binding (ligand pool, each inhibitor in pool 10 μM): 7.5%
7 | (+)-Norpseudoephedrine | 36.3% | –
8 | (+)-Pseudoephedrine | 5.1% | –
